Tests used:
[1] = molecular target: Bifunctional protein GlmU (Escherichia coli (strain K12)) (UniProt P0ACC7); assay: Competitive inhibition of Acetyltransferase activity of Escherichia coli BL21(DE3) GlmU in presence of AcCoA
[2] = molecular target: Bifunctional protein GlmU (Escherichia coli (strain K12)) (UniProt P0ACC7); assay: Uncompetitive inhibition of Acetyltransferase activity of Escherichia coli BL21(DE3) GlmU in presence of AcCoA
[3] = molecular target: Bifunctional protein GlmU (Escherichia coli (strain K12)) (UniProt P0ACC7); assay: Uncompetitive inhibition of Acetyltransferase activity of Escherichia coli BL21(DE3) GlmU in presence of GlcN-1P

Sequence of Bifunctional protein GlmU (Escherichia coli (strain K12)) (P0ACC7 whole entry, looked up): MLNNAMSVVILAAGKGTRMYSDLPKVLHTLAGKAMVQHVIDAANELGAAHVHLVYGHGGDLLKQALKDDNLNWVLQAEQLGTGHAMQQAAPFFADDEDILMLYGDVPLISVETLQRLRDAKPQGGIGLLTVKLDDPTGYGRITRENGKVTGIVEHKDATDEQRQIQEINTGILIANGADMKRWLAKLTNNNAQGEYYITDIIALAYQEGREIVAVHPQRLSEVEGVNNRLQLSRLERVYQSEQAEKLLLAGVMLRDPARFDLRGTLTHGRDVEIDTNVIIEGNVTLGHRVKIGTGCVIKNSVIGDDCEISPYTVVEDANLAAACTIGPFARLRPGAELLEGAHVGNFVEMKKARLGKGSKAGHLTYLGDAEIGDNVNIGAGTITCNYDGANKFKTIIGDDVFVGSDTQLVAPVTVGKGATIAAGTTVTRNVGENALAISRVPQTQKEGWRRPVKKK

| SMILES | Kic [1] | Kiuc [2] | Kiuc [3] |
| --- | --- | --- | --- |
| O=C(CSc1nnc(SCC(=O)NCCSCc2ccco2)s1)NCCSCc1ccco1 | 22.8 nM | 101 nM | – |
| O=S(=O)(Nc1ccc(S(=O)(=O)c2ccc(-c3ccc(S(=O)(=O)c4ccc(NS(=O)(=O)c5ccc(Cl)cc5)c(Cl)c4)cc3)cc2)cc1Cl)c1ccc(Cl)cc1 | 404 nM | – | 1.11 ×10³ nM |
| Nc1ccc(Nc2ccc(N)cc2S(=O)(=O)O)cc1 | 17.2 nM | – | 189 nM |

— ChEMBL document CHEMBL1649466, “High-throughput screening identifies novel inhibitors of the acetyltransferase activity of Escherichia coli GlmU” (Antimicrob Agents Chemother, 2009)
